These results are taken from ChEMBL document CHEMBL1129829, “Synthesis and biological activity of P2P4 azapeptidomimetic P1-argininal and P1-ketoargininamide derivatives: a novel class of serine protease inhibitors” (Bioorg Med Chem Lett, 1997).

The term IC50 denotes the midpoint of a concentration-inhibition curve.

The target in assay [1] is T1, Coagulation factor VII (Homo sapiens, UniProt P08709).
T1 sequence (P08709 whole entry): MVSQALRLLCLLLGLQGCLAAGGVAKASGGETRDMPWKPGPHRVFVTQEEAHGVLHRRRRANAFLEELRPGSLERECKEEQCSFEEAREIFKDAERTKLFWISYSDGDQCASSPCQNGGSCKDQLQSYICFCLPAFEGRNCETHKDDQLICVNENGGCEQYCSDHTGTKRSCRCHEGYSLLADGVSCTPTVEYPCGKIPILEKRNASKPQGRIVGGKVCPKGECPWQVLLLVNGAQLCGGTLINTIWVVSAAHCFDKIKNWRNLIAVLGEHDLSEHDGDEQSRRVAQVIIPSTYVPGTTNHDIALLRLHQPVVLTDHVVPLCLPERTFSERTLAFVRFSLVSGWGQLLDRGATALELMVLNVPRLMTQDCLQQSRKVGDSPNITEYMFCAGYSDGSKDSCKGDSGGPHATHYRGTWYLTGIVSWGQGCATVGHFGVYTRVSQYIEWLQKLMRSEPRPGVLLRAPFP
The assay can be described thus: Compound was evaluated for its 50 percent inhibitory concentration against human Coagulation factor VII.

Assay [2] addresses T2, Coagulation factor X (Homo sapiens, UniProt P00742). In words: Compound was evaluated for its 50% inhibitory concentration against Coagulation factor X.
In assay [3] the target is T3, Plasminogen (Homo sapiens, UniProt P00747). The assay can be described thus: Compound was evaluated for its 50% inhibitory concentration against human protease enzyme plasmin.
T3 sequence (P00747 97-580 limits assumed): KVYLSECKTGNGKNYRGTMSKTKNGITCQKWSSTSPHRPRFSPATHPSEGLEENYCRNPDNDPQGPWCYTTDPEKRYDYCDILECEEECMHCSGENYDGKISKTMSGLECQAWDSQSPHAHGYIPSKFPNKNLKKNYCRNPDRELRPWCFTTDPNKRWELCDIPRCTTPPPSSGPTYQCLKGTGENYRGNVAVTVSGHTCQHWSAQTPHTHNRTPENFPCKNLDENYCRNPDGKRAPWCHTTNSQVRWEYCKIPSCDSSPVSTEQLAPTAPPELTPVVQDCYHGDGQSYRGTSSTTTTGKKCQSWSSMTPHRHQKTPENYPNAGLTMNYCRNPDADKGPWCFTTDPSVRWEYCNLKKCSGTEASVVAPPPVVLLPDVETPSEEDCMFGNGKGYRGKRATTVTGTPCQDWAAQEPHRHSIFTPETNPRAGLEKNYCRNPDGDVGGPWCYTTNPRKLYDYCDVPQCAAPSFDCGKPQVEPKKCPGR
T3 sequence (P00747 581-810 limits assumed): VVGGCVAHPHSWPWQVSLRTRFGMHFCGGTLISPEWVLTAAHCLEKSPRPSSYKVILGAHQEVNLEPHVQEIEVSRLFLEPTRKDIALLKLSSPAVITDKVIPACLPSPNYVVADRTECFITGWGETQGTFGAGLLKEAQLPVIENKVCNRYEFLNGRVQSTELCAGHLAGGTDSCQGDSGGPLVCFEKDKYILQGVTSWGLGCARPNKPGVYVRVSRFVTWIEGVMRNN
In assay [4] the target is T4, Prothrombin (Homo sapiens, UniProt P00734). The assay can be described thus: Compound was evaluated for its 50 percent inhibitory concentration against human thrombin factor (FIIa).
The target in assay [5] is T5, Serine protease 1 (Bos taurus, UniProt P00760).
T5 sequence (P00760 whole entry): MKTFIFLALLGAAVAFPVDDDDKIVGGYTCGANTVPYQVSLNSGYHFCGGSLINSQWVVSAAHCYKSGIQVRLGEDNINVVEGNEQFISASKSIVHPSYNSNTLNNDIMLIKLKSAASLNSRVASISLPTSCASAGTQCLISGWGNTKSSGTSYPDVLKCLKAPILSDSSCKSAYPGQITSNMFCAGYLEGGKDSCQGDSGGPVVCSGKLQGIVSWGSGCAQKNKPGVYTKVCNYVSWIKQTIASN
In words: Compound was evaluated for its 50% inhibitory concentration against cow protease enzyme trypsin.

Assay [6] has as its target T2, Coagulation factor X.
Assay [7] has as its target T3, Plasminogen.
The target in assay [8] is T1, Coagulation factor VII. In words: Compound was evaluated for its 50 percent inhibitory concentration against human Coagulation factor VII; inactive.
In assay [9] the target is T3, Plasminogen. In words: Compound was evaluated for its 50% inhibitory concentration against human protease enzyme plasmin; Inactive.
The target in assay [10] is Serine protease 1 (Homo sapiens, UniProt P07477). The assay can be described thus: Compound was evaluated for its 50% inhibitory concentration against human protease enzyme trypsin.
Sequence of Serine protease 1 (Homo sapiens, UniProt P07477) (P07477 whole entry): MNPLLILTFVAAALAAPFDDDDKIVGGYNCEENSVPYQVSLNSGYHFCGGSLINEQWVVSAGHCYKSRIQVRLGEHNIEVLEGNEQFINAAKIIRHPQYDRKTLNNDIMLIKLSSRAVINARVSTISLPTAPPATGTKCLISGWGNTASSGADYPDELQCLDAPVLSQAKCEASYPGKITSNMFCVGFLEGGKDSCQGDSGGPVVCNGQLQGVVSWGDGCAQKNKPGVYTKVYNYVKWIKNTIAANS
Assay [11] has as its target T4, Prothrombin.
The target of assay [12] is T1, Coagulation factor VII. The assay can be described thus: Compound was evaluated for its 50 percent inhibitory concentration against human Coagulation factor VII: Inactive.

T2 sequence (P00742 41-179 limits assumed): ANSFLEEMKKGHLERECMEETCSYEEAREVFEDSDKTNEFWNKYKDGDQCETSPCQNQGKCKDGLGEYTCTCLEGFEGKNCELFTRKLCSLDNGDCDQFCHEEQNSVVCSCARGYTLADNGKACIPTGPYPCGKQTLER
T2 sequence (P00742 235-488 limits assumed): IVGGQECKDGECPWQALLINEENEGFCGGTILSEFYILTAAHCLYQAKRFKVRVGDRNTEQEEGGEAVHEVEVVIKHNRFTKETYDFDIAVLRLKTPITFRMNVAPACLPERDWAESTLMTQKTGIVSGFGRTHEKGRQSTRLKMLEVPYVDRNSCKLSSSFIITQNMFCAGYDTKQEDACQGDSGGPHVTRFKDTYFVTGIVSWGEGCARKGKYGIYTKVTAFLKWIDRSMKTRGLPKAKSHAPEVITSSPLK

Consider `CC(C)(C)OC(=O)N[C@@H](CC(=O)O)C(=O)N1CCCC1C(=O)N[C@@H](CCCN=C(N)N)C(=O)C(=O)NCCc1ccccc1` (some centres undefined), for which the IC50 is 706 nM in assay [1]; 698 nM in assay [2]; 2710 nM in assay [3]; 2.3 nM in assay [4]; 0.76 nM in assay [5].

Regarding `CCOC(=O)CN(NC(C)=O)C(=O)[C@@H]1CCCC[C@H]1C(=O)N[C@H](C=O)CCCN=C(N)N`, the IC50 in assay [1] is more than 25000 nM; in assay [4], 22100 nM; in assay [5], 590 nM; in assay [6], “Not Active”; in assay [7], “Not Active”.

For `CCCC(CCC)C(=O)NN(CC(=O)OCC)C(=O)[C@@H]1CCCC[C@H]1C(=O)N[C@@H](CCCN=C(N)N)C(=O)C(=O)NCCc1ccccc1`, the IC50 entry was “Not Active” in assay [8]; “Not Active” in assay [9]; 13200 nM in assay [4]; 22200 nM in [10]; “Not Active” in [6].

For `CCOC(=O)CN(NC(=O)OC(C)(C)C)C(=O)[C@@H]1CCCC[C@H]1C(=O)N[C@H](C=O)CCCN=C(N)N`, the IC50 in assay [1] was 22000 nM; in [4], more than 2500 nM; in assay [5], 250 nM; in assay [6], “Not Active”; in assay [7] it was “Not Active”.

Turning to `CC(=O)NN(CCCc1ccccc1)C(=O)[C@@H]1CCCC[C@H]1C(=O)N[C@H](C=O)CCCN=C(N)N`, the IC50 in assay [1] was more than 25000 nM; in assay [4], 12800 nM; in assay [10] it was 5700 nM; in [6], “Not Active”; in assay [7] it was “Not Active”.

With `CC(=O)NN(Cc1ccccc1)C(=O)[C@@H]1CCCC[C@H]1C(=O)N[C@@H](CCCN=C(N)N)C(=O)C(=O)NCCc1ccccc1`, the IC50 in [1] is 8500 nM; in assay [3], more than 2500 nM; in assay [4], 3200 nM; in [5] it was 108 nM; in [6], “Not Active”.

As to `CC(=O)NN(Cc1ccccc1)C(=O)[C@@H]1CCCC[C@H]1C(=O)N[C@H](C=O)CCCN=C(N)N`, the IC50 in [1] is more than 25000 nM; in assay [5], more than 2500 nM; in assay [6] it was “Not Active”; in [7], “Not Active”; in assay [11], “Not Active”.

`CC(C)(C)OC(=O)NN(Cc1ccccc1)C(=O)[C@@H]1CCCC[C@H]1C(=O)N[C@H](C=O)CCCN=C(N)N`: the IC50 was more than 25000 nM in [1]; more than 2500 nM in assay [4]; more than 2500 nM in assay [5]; “Not Active” in assay [6]; “Not Active” in assay [7].

On to `CCOC(=O)CN(NC(=O)OC(C)(C)C)C(=O)[C@@H]1CCCC[C@H]1C(=O)N[C@@H](CCCN=C(N)N)C(=O)C(=O)NCCc1ccccc1`, for which the IC50 is 25000 nM in assay [1]; more than 2500 nM in assay [4]; 250 nM in assay [5]; “Not Active” in assay [6]; “Not Active” in assay [7].

As to `COC(=O)CN(NC(=O)OC(C)(C)C)C(=O)[C@@H]1CCCC[C@H]1C(=O)N[C@@H](CCCN=C(N)N)C(=O)C(=O)NCCc1ccccc1`, the half-maximal inhibitory concentration (IC50) in [1] is 18000 nM; in assay [5], 1310 nM; in assay [6], “Not Active”; in [7] it was “Not Active”; in [11], “Not Active”.

Consider `CC(C)(C)OC(=O)NN(Cc1ccccc1)C(=O)[C@@H]1CCCC[C@H]1C(=O)N[C@@H](CCCN=C(N)N)C(=O)C(=O)NCCc1ccccc1`, for which the IC50 result in assay [12] was “Not Active”; in assay [4], 880 nM; in [10], 250 nM; in [6] it was “Not Active”; in assay [7] it was “Not Active”.

In the case of `CC(=O)N[C@H](Cc1ccccc1)C(=O)N1CCC[C@H]1C(=O)N[C@H]1CCCN(C(=N)N)C1O` (some centres undefined), the IC50 is 4300 nM in assay [1], more than 2500 nM in assay [2], more than 2500 nM in assay [3] and 156 nM in assay [5].
